Consider five compounds from patent US6803186B2, “Compositions and methods for increasing amino acid absorption in mammals” (The IAMS Company, priority 2001, dated 2004).

Assay [1] has as its target T1, canine PepT1 (cPepT1) (Canis lupus familiaris, UniProt Q8WMX5).
T1 construct: endogenous in cells; host or cells: MDCK (Madin-Darby Canine Kidney) cells, whole-cell [3H]-GlySar uptake
T1 sequence (Q8WMX5 1-708): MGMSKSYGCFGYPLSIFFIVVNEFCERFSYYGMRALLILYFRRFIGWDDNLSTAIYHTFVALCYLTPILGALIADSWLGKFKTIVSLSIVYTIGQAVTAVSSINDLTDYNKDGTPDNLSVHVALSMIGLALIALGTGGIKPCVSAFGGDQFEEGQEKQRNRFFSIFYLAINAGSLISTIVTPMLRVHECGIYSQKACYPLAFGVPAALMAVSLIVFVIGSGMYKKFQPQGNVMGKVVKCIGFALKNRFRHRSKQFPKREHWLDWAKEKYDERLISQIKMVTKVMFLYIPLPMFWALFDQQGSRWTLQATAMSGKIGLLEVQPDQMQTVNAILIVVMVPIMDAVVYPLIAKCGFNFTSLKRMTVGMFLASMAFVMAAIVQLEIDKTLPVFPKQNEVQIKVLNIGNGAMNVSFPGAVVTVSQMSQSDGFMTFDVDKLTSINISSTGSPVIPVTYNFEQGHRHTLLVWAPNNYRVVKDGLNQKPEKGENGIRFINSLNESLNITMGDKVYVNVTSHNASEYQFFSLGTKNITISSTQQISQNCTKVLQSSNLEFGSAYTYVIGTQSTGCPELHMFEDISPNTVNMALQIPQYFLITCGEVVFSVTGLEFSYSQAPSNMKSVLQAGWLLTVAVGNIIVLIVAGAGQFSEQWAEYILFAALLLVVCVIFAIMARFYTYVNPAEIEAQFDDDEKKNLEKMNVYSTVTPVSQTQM
Briefly: Inhibition of H+-dependent 100 μM GlySar uptake by MDCK cells cultured in LHM. Particulars: 100 μM GlySar. It is filed as cell-based. As to the method:
Characteristic hallmarks of low affinity H^+/peptide cotransport activity, classically defined using membrane vesicles of several species, and more recently by functional expression studies using human, rat, and rabbit PepT1 cDNA, is the recognition of some, but not all, β-lactam antibiotics. […] To determine whether MDCK cPepT1 activity shared these functional features, the uptake of 100 μM GlySar in the absence and presence of pH 7.5 and pH 6.0 buffer, and, in pH 6.0 buffers, the presence of 1 mM additional GlySar (self-inhibitor control), 3 mM Penicillin-G, 30 μM cefadroxil, or 3 mM cefadroxil was compared (FIG. 13).
Other hallmarks of PepT1 function are the decreased ability of Gly-containing peptides to inhibit GlySar, in proportion to their length, and sensitivity to inhibition by carnosine (β-Ala-His).
Accordingly, the following general regimen was used to perform a series of experiments that evaluated the relative abilities of candidate di-(primarily) and tri-peptides to inhibit GlySar uptake by endogenously expressed cPepT1 in MDCK cells:
1. Sixty thousand cells/well were plated into collagen-coated 24-well trays and cultured at 37° C. in an atmosphere of 95% air/5% CO2 in DMEM/10% FCS that contained antibiotics for 1 day.
2. The media was removed and cells were cultured in LHM/10% FCS/antibiotics for 1 day.
3. The media was removed and cells cultured in LHM/10% FCS (no antibiotics) for 20 h.
4. The media was removed and cells cultured for 30 min in air at 37° C. in depletion medium (25 mM Hepes/Tris (pH 7.5), 140 mM NaCl, 5.4 mM KCl, 1.8 mM CaCl2, 0.8 mM MgSO4, and 5 mM glucose, to normalize intracellular nutrient pools.
5. Transport was initiated by replacing depletion medium with uptake medium (depletion medium adjusted to pH 6.0 or kept at pH 7.4) that contained 100 μM GlySar (at a specific activity of 5 μCi/mL, with [^3H]-GlySar supplying 2.88% of total GlySar substrate) and (or) 1 mM of inhibiting peptide.
In total, 23 inhibitory peptides and 2 drug compounds were screened using this protocol.

Assay [2] concerns the target T1, canine PepT1 (cPepT1). Briefly: Substrate regulation of H+-dependent GlySar uptake capacity of MDCK cells cultured in DMEM (Example 3, Trials 1 and 2). It is filed as cell-based. Particulars: 10 mM in DMEM. As to the method: All cells were plated (60,000/2 cm^2 well) and cultured (95% air/5% CO2, 37° C.) for 24 h in Dulbecco's Modified Eagle Media/10% fetal calf serum (FCS)/1%Antibiotic/Antimicrobial solution (ABAM) (DMEM media). Following these initial common culture conditions, cells then were cultured in DMEM, or DMEM that contained 10 mM of Camosine, GlyPhe, Phe, or Gly. Media were changed every 24 h. Media treatments (n=8) were as follows:
The measurement of [^3H]Glysarcosine uptake was performed by using a 24-well cluster tray method (Kilberg M S. Measurement of amino acid transport by hepatocytes in suspension and monolayer culture. Methods Enzym 1989; 173:564-575. Matthews J C, Aslanian A, McDonald K K, Yang W, Malandro M S, Novak D A, Kilberg M S. An expression system for mammalian amino acid transport using a stably maintained episomal vector. Anal Biochem 1997; 254:208-214), and used in Examples 1 and 2. Cells were cultured for 30 min in air at 37° C. in depletion medium (25 mM Hepes/Tris (pH 7.5), 140 mM NaCl, 5.4 mM KCl, 1.8 mM CaCl2, 0.8 mM MgSO4, and 5 mM glucose), to normalize intracellular nutrient pools before transport. The transport assays are initiated by replacing depletion medium with uptake medium (Depletion medium adjusted to pH 6.0) that contained 100 μM GlySar (5 μCi/mL, with [^3H]-GlySar supplying 2.88% of total GlySar). After a 30 minute incubation period, transport was terminated with four rinses of 4° C. depletion medium (pH 7.5). Two hundred and twenty μL of 10% trichloroacetic acid was added to each well, and the radioactivity of the supernatant quantified by liquid scintillation counting. The cells of each well are solubilized in 0.2 N NaOH/0.2% SDS and the protein quantified by using the modified Lowry assay, using bovine serum as a standard. Id. Peptide uptake will be reported as pmol* mg^−1 protein* 30 min^−1. Uptake measurements were taken after 24, 48, and 72 hours of culture in treatment media.
The MDCK cell line was maintained as described previously in the Methods section of Trial 1. […]

In another assay the target is T2, PepT1 (Homo sapiens, UniProt P46059).
T2 sequence (P46059 1-708): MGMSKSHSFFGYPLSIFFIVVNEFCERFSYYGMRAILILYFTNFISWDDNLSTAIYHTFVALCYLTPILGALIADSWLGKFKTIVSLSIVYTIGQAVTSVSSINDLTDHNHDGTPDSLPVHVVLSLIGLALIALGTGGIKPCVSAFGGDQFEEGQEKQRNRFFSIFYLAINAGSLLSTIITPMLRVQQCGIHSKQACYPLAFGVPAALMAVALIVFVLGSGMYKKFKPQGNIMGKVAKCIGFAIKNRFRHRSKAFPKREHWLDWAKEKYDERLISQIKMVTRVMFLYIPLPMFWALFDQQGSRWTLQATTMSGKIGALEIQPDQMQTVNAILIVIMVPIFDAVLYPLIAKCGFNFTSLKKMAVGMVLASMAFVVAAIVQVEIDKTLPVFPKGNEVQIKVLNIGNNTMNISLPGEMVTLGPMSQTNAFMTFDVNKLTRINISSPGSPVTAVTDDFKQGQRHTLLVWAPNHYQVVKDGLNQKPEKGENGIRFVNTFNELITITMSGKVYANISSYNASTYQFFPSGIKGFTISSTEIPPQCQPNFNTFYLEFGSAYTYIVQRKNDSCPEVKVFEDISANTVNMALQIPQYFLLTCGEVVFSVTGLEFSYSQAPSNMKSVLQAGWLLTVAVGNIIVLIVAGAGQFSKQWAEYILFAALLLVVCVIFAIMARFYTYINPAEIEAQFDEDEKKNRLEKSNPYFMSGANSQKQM
The conditions noted are these: read-out: Ki of cefadroxil inhibition of GlySar uptake by PepT1; cited from earlier work.

The next assay addresses T3, PepT2 (Homo sapiens, UniProt Q16348).
T3 sequence (Q16348 1-729): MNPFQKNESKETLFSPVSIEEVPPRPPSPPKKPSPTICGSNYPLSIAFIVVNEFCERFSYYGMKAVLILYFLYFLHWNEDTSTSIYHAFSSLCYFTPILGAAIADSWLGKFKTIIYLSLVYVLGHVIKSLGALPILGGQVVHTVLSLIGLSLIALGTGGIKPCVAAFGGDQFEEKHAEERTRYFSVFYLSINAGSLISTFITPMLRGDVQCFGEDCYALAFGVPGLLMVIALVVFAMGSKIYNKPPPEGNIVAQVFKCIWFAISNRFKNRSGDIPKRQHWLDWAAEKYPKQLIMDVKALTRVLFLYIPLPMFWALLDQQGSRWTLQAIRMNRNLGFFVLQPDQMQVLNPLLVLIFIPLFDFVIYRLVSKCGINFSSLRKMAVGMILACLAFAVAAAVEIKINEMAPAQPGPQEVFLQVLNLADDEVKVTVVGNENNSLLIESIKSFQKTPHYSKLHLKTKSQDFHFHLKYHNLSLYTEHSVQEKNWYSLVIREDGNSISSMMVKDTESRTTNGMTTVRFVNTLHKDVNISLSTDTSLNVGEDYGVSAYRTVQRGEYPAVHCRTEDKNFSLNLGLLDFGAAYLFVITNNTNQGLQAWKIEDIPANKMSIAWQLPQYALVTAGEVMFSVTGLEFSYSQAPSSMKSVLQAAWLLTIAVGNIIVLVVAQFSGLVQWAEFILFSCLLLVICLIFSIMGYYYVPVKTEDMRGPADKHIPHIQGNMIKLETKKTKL
The conditions noted are these: read-out: Ki of cefadroxil inhibition of PepT2 transport of GlySar; cited from earlier work.

Assay [3] concerns canine PepT1 (cPepT1). Briefly: Influence of dexamethasone, insulin and IGF-I on H+-dependent GlySar uptake by MDCK cells (Trials 3A, 3B). Type of assay: cell-based. Particulars: for effect on H+-dependent GlySar uptake capacity: 5 or 500 nM in DMEM, 4 h of culture. As to the method:
MDCK cells were maintained as described in Trial 1, except that cells were cultured for only 1 d before transport trials were performed. Following initial and common culture conditions, cells were cultured in a “nutrient depleted” buffer (Hepes/Tris (pH 7.5),140 mM NaCl, 5.4 mM KCl, 1.8 mM CaCl2, 0.8 mM MgSO4) that contained 5 mM glucose as an energy source, but that lacked amino acid or vitamin sources. In contrast, cells cultured in DMEM, or DMEM that contained 5 nM Dex, 500 nM Dex, 5 nM insulin, or 500 nM insulin, were adequately nourished. Media treatments (n=4) were as follows:
The measurement of [^3H]Glysarcosine uptake was performed by using the 24-well cluster tray method as previously described in the Methods section of Trial 1. Peptide uptake is reported as pmol* mg^−1 protein*30 min^−1. Uptake measurements were taken after 30 min and 4 h of culture in treatment media.
Trial 3B was conducted in the same manner as described for Trail 3A, except that cells were cultured in DMEM or DMEM that contained 1 nM IGF-1, 5 nM IGF-1, 25 nM IGF-1, or 100 nM IGF-1. Uptake measurements were taken after 30 min and 4 h of culture time.

Regarding `NCCC(=O)N[C@@H](Cc1cnc[nH]1)C(=O)O` [Carnosine, Carnosine (β-AlaHis)], the “% inhibition of H+-dependent GlySar uptake” value at canine PepT1 (cPepT1) [1] (1 mM extracellular substrate, pH 6.0, 30 min) amounted to 50%. The “increase of GlySar uptake capacity over DMEM-cultured cells” value was determined as 23% at canine PepT1 (cPepT1) [2] (72 h of culture) and 291% at canine PepT1 (cPepT1) [2] (216 h of culture).
The inhibition is how much of the control response was suppressed. A high value points to a strong effect. The term Ki denotes the equilibrium dissociation constant of an inhibitor or competing ligand from its target. Take `CC1=C(C(=O)O)N2C(=O)[C@@H](NC(=O)[C@H](N)c3ccc(O)cc3)[C@H]2SC1` [Cefadroxil]: the “% inhibition of H+-dependent GlySar uptake” value at canine PepT1 (cPepT1) [1] (30 μM cefadroxil) is “not inhibited”. This compound also gave an inhibition at 30 µM at canine PepT1 (cPepT1) [1] (MDCK, 30 μM cefadroxil) of 0%. Further, the inhibition at 3000 µM at canine PepT1 (cPepT1) [1] (MDCK, 3 mM cefadroxil) was approximately 76%. Also, the Ki on PepT1 is 3000 µM; at PepT2 it was 30 µM.
As for `C[C@@H]1C[C@H]2[C@@H]3CCC4=CC(=O)C=C[C@]4(C)[C@@]3(F)[C@@H](O)C[C@]2(C)[C@@]1(O)C(=O)CO` [dexamethasone], the “effect on H+-dependent GlySar uptake capacity” value with canine PepT1 (cPepT1) [3] is reported as “no effect”.
As for IGF-I: Insulin-like Growth factor I, in the assay on canine PepT1 (cPepT1) [3] (increasing amounts of IGF-I (1 to 100 nM) in DMEM), the “stimulation of H+-dependent GlySar uptake” value is given as “no significant stimulation”.
As to insulin: insulin (negative control), the “effect on H+-dependent GlySar uptake capacity” value in the assay with canine PepT1 (cPepT1) [3] is reported as “no effect”.
